Laboratory results as given in US20260062387A1, “SALT-INDUCIBLE KINASE INHIBITOR COMPOUND AND PHARMACEUTICAL COMPOSITION INCLUDING THE SAME” (MITSUBISHI TANABE PHARMA CORPORATION, priority 2023, published 2026).

Key:
Format in all cases: biochemical
GST-tagged SIK3 = GST-tagged SIK3 (Homo sapiens (Human), UniProt Q9Y2K2); assay: SIK3 inhibition test (ADP-Glo Max Assay); details: enzyme 100 nM, AMARA Peptide 100 μM, ATP 1 mM, 2 hours room temperature
Procedure: (§1) The compounds described in Examples above were used in the SIK1, SIK2, and SIK3 inhibition test.
(§2) The inhibitory activity of the compound for SIK1, SIK2, and SIK3 enzymes was assayed by measuring the amount of ADP, an enzyme reaction product, with ADP-Glo™ Max Assay (Promega). Enzymes, specifically, GST-tagged SIK1 (Carna Biosciences, Inc.), GST-tagged SIK2 (Carna Biosciences, Inc.), and GST-tagged SIK3 (SignalChem) were prepared in a reaction buffer (15 mM tris-hydrochloric acid buffer (pH 7.5), 0.001% Triton X-100, 0.01% BSA) so that the final concentration would be 20 nM, 3 nM, and 100 nM. Enzyme solutions were thus formed. In a reaction buffer, AMARA Peptide (SignalChem) as a substrate with a final concentration of 200 μM (SIK1, SIK2) or 100 μM (SIK3), ATP (Promega) with a final concentration of 1 mM, and magnesium chloride with a final concentration of 5 mM were prepared. Substrate solutions were thus formed. The enzyme solution, the substrate solution, and a DMSO solution of a concentration of the test compound were mixed together and reacted at room temperature for 2 hours. After the reaction, ADP-Glo™ Reagent (Promega) was added, and the reaction was performed at room temperature for 30 minutes. Subsequently, ADP-Glo™ Max Detection Reagent (Promega) was added, and the reaction was performed at room temperature for 30 minutes. The emission by the luciferase reaction was measured with PHERAstar FSX (BMG LABTECH).
(§3) The inhibitory ratio (%) was calculated by: % Inhibition={1−(intensity of sample−intensity of blank (no enzyme solution added))/(intensity of control (DMSO alone)−intensity of blank)}×100. The inhibitory concentration IC50 was calculated based on 16 data values obtained in the concentration response test.

GST-tagged SIK2 = GST-tagged SIK2 (Homo sapiens (Human), UniProt Q9H0K1); assay: SIK2 inhibition test (ADP-Glo Max Assay); details: enzyme 3 nM, AMARA Peptide 200 μM, ATP 1 mM, 2 hours room temperature
Procedure: as §1, §2, §3

GST-tagged SIK1 = GST-tagged SIK1 (Homo sapiens (Human), UniProt P57059); assay: SIK1 inhibition test (ADP-Glo Max Assay); details: enzyme 20 nM, AMARA Peptide 200 μM, ATP 1 mM, 2 hours room temperature
Procedure: as §1, §2, §3

Chain of GST-tagged SIK1 (P57059 whole entry): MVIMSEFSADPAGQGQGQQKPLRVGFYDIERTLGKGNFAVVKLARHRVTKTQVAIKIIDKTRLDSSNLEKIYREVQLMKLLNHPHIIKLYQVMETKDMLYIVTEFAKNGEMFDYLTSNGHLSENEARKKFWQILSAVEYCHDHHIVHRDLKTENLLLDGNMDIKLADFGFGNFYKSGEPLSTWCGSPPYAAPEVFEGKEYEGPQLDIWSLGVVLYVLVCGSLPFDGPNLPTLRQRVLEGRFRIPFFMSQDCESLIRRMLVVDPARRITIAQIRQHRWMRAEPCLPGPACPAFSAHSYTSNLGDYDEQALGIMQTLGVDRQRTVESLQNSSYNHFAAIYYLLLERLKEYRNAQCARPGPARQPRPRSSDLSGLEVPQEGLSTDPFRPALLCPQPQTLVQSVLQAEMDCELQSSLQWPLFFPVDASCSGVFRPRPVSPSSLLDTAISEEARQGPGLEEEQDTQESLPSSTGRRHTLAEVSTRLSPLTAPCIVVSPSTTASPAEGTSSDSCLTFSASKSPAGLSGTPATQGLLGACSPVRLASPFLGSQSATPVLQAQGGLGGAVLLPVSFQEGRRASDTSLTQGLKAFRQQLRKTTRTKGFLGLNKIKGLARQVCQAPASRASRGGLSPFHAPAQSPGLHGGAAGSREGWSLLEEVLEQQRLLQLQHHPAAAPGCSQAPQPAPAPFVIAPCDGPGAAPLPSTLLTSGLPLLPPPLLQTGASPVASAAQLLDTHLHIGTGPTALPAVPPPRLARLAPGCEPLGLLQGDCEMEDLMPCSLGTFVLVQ
Chain of GST-tagged SIK2 (Q9H0K1 whole entry): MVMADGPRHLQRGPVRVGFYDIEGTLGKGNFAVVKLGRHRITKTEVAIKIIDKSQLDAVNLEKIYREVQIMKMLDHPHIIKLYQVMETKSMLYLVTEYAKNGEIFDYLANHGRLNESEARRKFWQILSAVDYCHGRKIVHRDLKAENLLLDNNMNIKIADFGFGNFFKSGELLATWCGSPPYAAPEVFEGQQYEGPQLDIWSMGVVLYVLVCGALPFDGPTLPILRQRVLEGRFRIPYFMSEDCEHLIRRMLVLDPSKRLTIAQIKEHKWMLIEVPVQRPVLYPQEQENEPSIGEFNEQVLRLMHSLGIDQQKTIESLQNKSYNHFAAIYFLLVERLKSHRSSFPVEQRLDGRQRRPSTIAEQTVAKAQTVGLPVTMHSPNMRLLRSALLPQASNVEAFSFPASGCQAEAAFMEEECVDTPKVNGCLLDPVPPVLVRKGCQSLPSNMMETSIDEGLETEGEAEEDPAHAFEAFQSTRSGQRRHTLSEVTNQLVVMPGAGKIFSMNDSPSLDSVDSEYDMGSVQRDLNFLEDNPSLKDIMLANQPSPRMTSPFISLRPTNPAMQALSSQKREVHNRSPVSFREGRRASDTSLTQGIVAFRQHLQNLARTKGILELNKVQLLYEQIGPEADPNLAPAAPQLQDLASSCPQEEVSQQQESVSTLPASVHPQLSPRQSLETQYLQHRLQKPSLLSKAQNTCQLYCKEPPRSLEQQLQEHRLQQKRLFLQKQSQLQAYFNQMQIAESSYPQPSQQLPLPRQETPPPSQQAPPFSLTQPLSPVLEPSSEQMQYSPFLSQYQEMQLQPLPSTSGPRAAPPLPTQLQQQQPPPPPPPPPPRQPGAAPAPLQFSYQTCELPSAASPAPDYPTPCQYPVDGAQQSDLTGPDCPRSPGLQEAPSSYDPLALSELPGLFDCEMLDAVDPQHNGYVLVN
Chain of GST-tagged SIK3 (Q9Y2K2 whole entry): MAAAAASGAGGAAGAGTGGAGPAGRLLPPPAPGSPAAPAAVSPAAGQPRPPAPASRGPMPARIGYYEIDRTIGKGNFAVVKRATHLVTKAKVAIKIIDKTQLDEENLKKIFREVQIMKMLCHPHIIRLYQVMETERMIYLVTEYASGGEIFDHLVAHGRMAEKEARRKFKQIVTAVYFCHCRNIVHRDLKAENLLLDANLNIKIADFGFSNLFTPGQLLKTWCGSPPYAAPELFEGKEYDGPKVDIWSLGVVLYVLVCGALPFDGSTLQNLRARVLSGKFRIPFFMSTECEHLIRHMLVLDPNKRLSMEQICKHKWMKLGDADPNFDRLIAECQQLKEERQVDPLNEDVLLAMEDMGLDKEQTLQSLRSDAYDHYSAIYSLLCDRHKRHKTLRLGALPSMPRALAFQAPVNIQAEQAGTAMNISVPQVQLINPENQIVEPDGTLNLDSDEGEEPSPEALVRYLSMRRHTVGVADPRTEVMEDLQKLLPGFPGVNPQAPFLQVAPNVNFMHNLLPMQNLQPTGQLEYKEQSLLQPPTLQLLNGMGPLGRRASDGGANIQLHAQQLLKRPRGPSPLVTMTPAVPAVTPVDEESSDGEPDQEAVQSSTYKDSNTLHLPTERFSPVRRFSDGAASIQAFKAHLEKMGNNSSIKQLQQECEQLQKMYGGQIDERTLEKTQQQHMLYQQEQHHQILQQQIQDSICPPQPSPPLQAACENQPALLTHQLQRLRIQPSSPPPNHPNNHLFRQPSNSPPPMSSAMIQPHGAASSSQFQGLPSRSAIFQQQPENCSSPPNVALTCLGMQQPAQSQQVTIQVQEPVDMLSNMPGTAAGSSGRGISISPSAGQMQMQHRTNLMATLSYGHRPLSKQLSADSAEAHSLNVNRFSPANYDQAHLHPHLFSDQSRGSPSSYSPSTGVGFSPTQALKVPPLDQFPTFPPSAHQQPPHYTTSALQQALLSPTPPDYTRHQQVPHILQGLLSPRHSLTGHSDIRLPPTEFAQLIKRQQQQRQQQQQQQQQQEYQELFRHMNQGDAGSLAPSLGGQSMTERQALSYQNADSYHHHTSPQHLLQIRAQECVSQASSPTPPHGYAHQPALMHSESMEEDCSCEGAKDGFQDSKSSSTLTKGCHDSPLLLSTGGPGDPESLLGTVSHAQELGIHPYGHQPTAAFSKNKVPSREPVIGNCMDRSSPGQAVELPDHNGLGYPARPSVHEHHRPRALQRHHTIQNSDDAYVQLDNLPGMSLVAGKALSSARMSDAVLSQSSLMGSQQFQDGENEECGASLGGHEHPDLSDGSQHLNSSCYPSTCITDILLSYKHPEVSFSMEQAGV

SMILES	IC50 (GST-tagged SIK3) [nM]	IC50 (GST-tagged SIK2) [nM]	IC50 (GST-tagged SIK1) [nM]
COc1cc(-c2cnn3cc(OCCN4CCOCC4)ccc23)cc2c1C(=O)N(CC(F)(F)F)CC2 [Comparative Example 6, 8-methoxy-6-[6-(2-morpholinoethoxy)pyrazolo[1,5-a]pyridin-3-yl]-2-(2,2,2-trifluoroethyl)-3,4-dihydroisoquinolin-1-one, reference compound]	42	102	5220
COc1cc(-c2c3ccc(OCCN4CCOCC4)cc3nn2C)cc(OC(F)F)c1C(=O)NC1CC1 [Comparative Example 7, N-cyclopropyl-2-(difluoromethoxy)-6-methoxy-4-(2-methyl-6-(2-morpholinoethoxy)-2H-indazol-3-yl)benzamide, reference compound]	198	369	7600
COc1cc(-c2c3ccc(N4CCN(C)CC4)cc3nn2C)cc2c1C(=O)N(CC(F)(F)F)CC2 [Comparative Example 8, 8-methoxy-6-(2-methyl-6-(4-methylpiperazin-1-yl)-2H-indazol-3-yl)-2-(2,2,2-trifluoroethyl)-3,4-dihydroisoquinolin-1(2H)-one, reference compound]	887	683	> 10000
COc1cc(-c2c3c(C#N)cc(-c4cnn(C)c4)cc3nn2C)cc(OC(F)F)c1C(=O)N[C@@H]1C[C@@H]1F [Example 1, 4-[4-cyano-2-methyl-6-(1-methylpyrazol-4-yl)indazol-3-yl]-2-(difluoromethoxy)-N-[(1R,2S)-2-fluorocyclopropyl]-6-methoxybenzamide]	2.2	2.1	5.9
COc1cc(-c2c3c(OC)cc(-c4cnn(C)c4)cc3nn2C)cc(OC(F)F)c1C(=O)N[C@@H]1C[C@@H]1F [Example 2, 2-(difluoromethoxy)-N-[(1R,2S)-2-fluorocyclopropyl]-6-methoxy-4-[4-methoxy-2-methyl-6-(1-methylpyrazol-4-yl)indazol-3-yl]benzamide]	7.8	8.3	19.8
COc1cc(-c2c3c(C(F)F)cc(-c4cnn(C)c4)cc3nn2C)cc(OC(F)F)c1C(=O)N[C@@H]1C[C@@H]1F [Example 3, 2-(difluoromethoxy)-4-[4-(difluoromethyl)-2-methyl-6-(1-methylpyrazol-4-yl)indazol-3-yl]-N-[(1R,2S)-2-fluorocyclopropyl]-6-methoxybenzamide]	2.3	4.5	7.6
COc1cc(-c2c3c(OCCCO)cc(-c4cnn(C)c4)cc3nn2C)cc(OC(F)F)c1C(=O)N[C@@H]1C[C@@H]1F [Example 4, 2-(difluoromethoxy)-N-[(1R,2S)-2-fluorocyclopropyl]-4-[4-(3-hydroxypropoxy)-2-methyl-6-(1-methylpyrazol-4-yl)indazol-3-yl]-6-methoxybenzamide]	11.5	8.9	5
COc1cc(-c2c3c(OC(F)F)cc(-c4cnn(C)c4)cc3nn2C)cc(OC(F)F)c1C(=O)N[C@@H]1C[C@@H]1F [Example 5, 2-(difluoromethoxy)-4-[4-(difluoromethoxy)-2-methyl-6-(1-methylpyrazol-4-yl)indazol-3-yl]-N-[(1R,2S)-2-fluorocyclopropyl]-6-methoxybenzamide]	7.6	5	10.8
COc1cc(-c2c3c(OCc4ccccc4)cc(-c4cnn(C)c4)cc3nn2C)cc(OC(F)F)c1C(=O)N[C@@H]1C[C@@H]1F [Example 6, 2-(difluoromethoxy)-N-[(1R,2S)-2-fluorocyclopropyl]-6-methoxy-4-[2-methyl-6-(1-methylpyrazol-4-yl)-4-phenylmethoxyindazol-3-yl]benzamide]	8.4	7.1	2.8
